Test systems include A498 renal; A549 NSCLC; EKVX NSCLC; HCT-15 colon; NCI-H226 lung; RPMI-8226 leukemia; SF-295 CNS; SK-MEL-2 melanoma; TK-10 renal; OVCAR-3 ovarian.
What all share (experiment): growth of human tumour cells (NCI), 48 h

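Compound exposure: 48 hours, 5 concentrations, 96-well plates. At the GI50, growth is halved. TGI: total growth inhibition.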 A value given as a limit tells only on which side of the number the result lay.

As for `c1ccc(N=c2sc3ccccc3nc2Nc2ccccc2)cc1`, the TGI in the assay with A498 renal, in the assay with A549 NSCLC, in the assay with EKVX NSCLC, in the assay with HCT-15 colon, in the assay with NCI-H226 lung and in the assay with RPMI-8226 leukemia was more than 100 µM each time. In addition, the TGI in the assay on SF-295 CNS, in the assay with SK-MEL-2 melanoma and in the assay with TK-10 renal was more than 100 µM throughout.
For the compound `N#Cc1c(N2CCCC2)ncn(-c2ccccc2)c1=O`, the TGI with A498 renal, in the assay with A549 NSCLC, in the assay with EKVX NSCLC, in the assay on HCT-15 colon, in the assay on NCI-H226 lung and in the assay with OVCAR-3 ovarian was more than 100 µM in each case. The TGI with RPMI-8226 leukemia, in the assay on SF-295 CNS, in the assay on SK-MEL-2 melanoma and in the assay on TK-10 renal was more than 100 µM each time.
With `CC(C)(C)OC(=O)NCCCCC1NC(=O)[C@@H]2Cc3c([nH]c4ccccc34)C(C3CCCCC3)N2C1=O` (stereo not given in full), the TGI with A498 renal was more than 100 µM; in the assay on A549 NSCLC, more than 100 µM; with EKVX NSCLC it was more than 100 µM; in the assay on HCT-15 colon, more than 100 µM; with NCI-H226 lung, more than 100 µM; with OVCAR-3 ovarian, 47.5 µM. Further, the TGI with RPMI-8226 leukemia is 41 µM; with SF-295 CNS, 63 µM; in the assay on SK-MEL-2 melanoma, more than 100 µM; with TK-10 renal it was more than 100 µM.
Take `C1CN(c2nc3c(nnc4nc(N5CCOCC5)sc43)s2)CCO1`: the TGI with A498 renal, in the assay on A549 NSCLC, in the assay with EKVX NSCLC, with HCT-15 colon, in the assay on NCI-H226 lung and in the assay with OVCAR-3 ovarian was more than 100 µM throughout. The TGI in the assay with RPMI-8226 leukemia, in the assay with SF-295 CNS, with SK-MEL-2 melanoma and in the assay with TK-10 renal was more than 100 µM throughout.
With `CCCCC#C[I+]c1ccccc1`, the TGI with A498 renal amounted to 48.2 µM; in the assay with A549 NSCLC, 33.8 µM; with EKVX NSCLC, 33.4 µM; in the assay on HCT-15 colon, 30 µM; in the assay on NCI-H226 lung, 30.7 µM; with OVCAR-3 ovarian, 30.7 µM. In addition, the TGI was 43.5 µM in the assay on SF-295 CNS, 34.1 µM in the assay with SK-MEL-2 melanoma and 28.6 µM with TK-10 renal.
As for `N#CCCC1C(C#N)C2(Cl)CC1(Cl)C(Cl)=C2Cl` (stereo not given), the TGI with A498 renal, in the assay on A549 NSCLC, in the assay with EKVX NSCLC, with HCT-15 colon, in the assay with NCI-H226 lung and with OVCAR-3 ovarian was more than 10 µM in each case. In addition, the TGI with RPMI-8226 leukemia, in the assay on SF-295 CNS, with SK-MEL-2 melanoma and in the assay with TK-10 renal was more than 10 µM each time.
In the case of `Cc1c(O)c(O)cc[n+]1C1OC(CO)C(O)C1O` (stereo not given), the TGI with A498 renal, in the assay with A549 NSCLC, in the assay with EKVX NSCLC, with HCT-15 colon, in the assay with NCI-H226 lung and with RPMI-8226 leukemia was more than 100 µM each time. Also, the TGI in the assay with SK-MEL-2 melanoma and with TK-10 renal was more than 100 µM each time.
Consider `C=CCN1C[C@H](C)N([C@H](c2ccc(C(=O)NC(CC)CC)cc2)c2cccc(OC)c2)C[C@H]1C`, for which the TGI in the assay on A498 renal was 63.3 µM; in the assay with A549 NSCLC, more than 100 µM; in the assay with EKVX NSCLC, more than 100 µM; with HCT-15 colon, more than 100 µM; in the assay on NCI-H226 lung, more than 100 µM; with OVCAR-3 ovarian it was more than 100 µM. In addition, the TGI with SF-295 CNS is more than 100 µM; with SK-MEL-2 melanoma it was 46.1 µM; in the assay on TK-10 renal, more than 100 µM.
For `COc1cc(C(=O)N(C(=S)OCc2ccccn2)c2ccccc2)cc(OC)c1OC`, the TGI was more than 100 µM in the assay on A498 renal; 79.9 µM in the assay on EKVX NSCLC; more than 100 µM with HCT-15 colon; more than 100 µM in the assay on NCI-H226 lung; more than 100 µM in the assay with OVCAR-3 ovarian; 99.8 µM with RPMI-8226 leukemia. Besides, the TGI in the assay on SK-MEL-2 melanoma and in the assay on TK-10 renal was more than 100 µM in each case.
For the compound `O=C1CCCSC(=O)N1Cc1ccccc1`, the TGI with A498 renal, with A549 NSCLC, in the assay on EKVX NSCLC, with HCT-15 colon, in the assay with NCI-H226 lung and with OVCAR-3 ovarian was more than 100 µM in each case. Besides, the TGI in the assay on SF-295 CNS, in the assay on SK-MEL-2 melanoma and in the assay on TK-10 renal was more than 100 µM each time.
For the compound `COc1ccc2cc(NC(=O)N/N=C\c3ccc([N+](=O)[O-])cc3)ccc2c1`, the TGI with A498 renal, in the assay on A549 NSCLC, in the assay on EKVX NSCLC, in the assay with HCT-15 colon, in the assay with NCI-H226 lung and in the assay with OVCAR-3 ovarian was more than 100 µM in each case. For the same compound, the TGI in the assay with RPMI-8226 leukemia, in the assay with SF-295 CNS and in the assay with SK-MEL-2 melanoma was more than 100 µM in each case.
As for `O=C(CCN1CCCCC1)C(=Cc1ccccc1)C(=O)CCN1CCCCC1`, the TGI in the assay with A498 renal was more than 100 µM; with A549 NSCLC, more than 100 µM; in the assay with EKVX NSCLC, more than 100 µM; with NCI-H226 lung, more than 100 µM; in the assay on OVCAR-3 ovarian it was more than 100 µM; with RPMI-8226 leukemia, 57.9 µM. For the same compound, the TGI with SF-295 CNS and in the assay with SK-MEL-2 melanoma was more than 100 µM each time. In addition, the GI50 with HCT-15 colon is 3.07 µM; in the assay with OVCAR-3 ovarian it was more than 100 µM; with RPMI-8226 leukemia it was 4.49 µM.
In the case of `CCC(C(=O)O)c1ccc(OC)cc1` (stereo not given), the TGI in the assay on A498 renal, in the assay on A549 NSCLC, with EKVX NSCLC, in the assay on NCI-H226 lung, in the assay with OVCAR-3 ovarian and with RPMI-8226 leukemia was more than 100 µM each time. The TGI in the assay on SF-295 CNS, in the assay with SK-MEL-2 melanoma and with TK-10 renal was more than 100 µM in each case.
In the case of `CCCCCCCCCCCCCCNC(=O)CCC(NC(=O)c1ccc(N(C)Cc2cnc3nc(N)nc(N)c3n2)cc1)C(=O)NCCCCCCCCCCCCCC` (stereo not given), the TGI in the assay on A498 renal was 34.5 µM; in the assay on A549 NSCLC, more than 36.3 µM; with EKVX NSCLC it was more than 100 µM; in the assay with HCT-15 colon, 28.2 µM; in the assay on NCI-H226 lung it was more than 100 µM; with OVCAR-3 ovarian, more than 46 µM. Moreover, the figures for the TGI in the assay with SF-295 CNS, in the assay with SK-MEL-2 melanoma and with TK-10 renal were 28.9 µM, more than 61.9 µM and more than 86.2 µM, respectively.

The record behind these values is PubChem BioAssay (NCI).
